Some test systems named below: SK-MEL-28; A498; MDA-N; HT-29; SNB-75; U-251; HOP-62; MDA-MB-435; SK-MEL-2; SW-620; NCI/ADR-RES; CAKI-1; SN12C; SNB-19; K562; SF-295; NCI-H522; M14; MCF7.
Common to all, as to experiment: growth of human tumour cells (NCI), 48 h

Values joined by “and” are separate entries in the source; they are usually repeats but may differ in a detail not shown here. Equal entries are not always repeated.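 In this assay, cells in 96-well plates receive the compound at five concentrations for 48 hours. Endpoints are linearly interpolated between the surrounding concentrations. Abbreviation: GI50, concentration required for 50% inhibition of growth.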 Active and inactive are the calls of the source. Rule as the data show it: active = GI50 up to about 1.1 µM and inactive = higher. Bounds are passed on as bounds.

For `COC(=O)[C@H](Cc1c[nH]c2ccccc12)NP(=O)(O)OCC1C=CC(n2cc(C)c(=O)[nH]c2=O)O1` (some centres not stated), the GI50 with SK-MEL-28, in the experiment with A498, in the experiment on MDA-N, with HT-29, in the experiment on SNB-75 and with U-251 was > 100 µM (inactive) throughout. Also, the GI50 with HOP-62, in the experiment on MDA-MB-435, in the experiment on SK-MEL-2, with SW-620, in the experiment on NCI/ADR-RES and in the experiment with CAKI-1 was > 100 µM (inactive) in each case. Moreover, the GI50 in the experiment with SN12C, with SNB-19 and in the experiment on K562 was > 100 µM (inactive) each time.

As to `CC(CO)[C@H]1OC(=O)C=C2[C@@]13O[C@@H]3[C@H]1OC(=O)[C@@]3(C)[C@H]4O[C@H]4C[C@@]2(C)[C@@H]13` (some centres not stated), the GI50 was 1.83 µM (inactive) in the experiment on SK-MEL-28; 4.1 µM (inactive) in the experiment with A498; 1.32 µM (inactive) with MDA-N; 1.19 µM (inactive) in the experiment on HT-29; 0.738 µM (active) in the experiment on SNB-75; 1.36 µM (inactive) with SF-295. Also, the GI50 in the experiment on U-251 was 2.15 µM (inactive); in the experiment with NCI-H522, 1.46 µM (inactive); in the experiment with HOP-62, 2.94 µM (inactive); in the experiment on MDA-MB-435, 1.55 µM (inactive); in the experiment with SK-MEL-2 it was 2.07 µM (inactive); with SW-620, 1.65 µM (inactive). Also, the GI50 with CAKI-1 is 1.84 µM (inactive); in the experiment with SN12C it was 1.92 µM (inactive); in the experiment on M14 it was 1.19 µM (inactive); in the experiment with MCF7 it was 1.07 µM (active); in the experiment with SNB-19, 1.47 µM (inactive); with K562, 1.17 µM (inactive).

For the compound `c1csc(C[N+]23CN4CN(CN(C4)C2)C3)c1`, the GI50 with SK-MEL-28 is > 100 µM (inactive); with HT-29, > 100 µM (inactive); in the experiment on SNB-75, > 100 µM (inactive); in the experiment with SF-295, > 100 µM (inactive); with U-251 it was 22.3 µM (inactive); in the experiment on NCI-H522, > 100 µM (inactive). In addition, the GI50 in the experiment on HOP-62 is 21.4 µM (inactive); in the experiment with SK-MEL-2, 19.7 µM (inactive); with SW-620 it was 15.7 µM (inactive); in the experiment with CAKI-1, 25.8 µM (inactive); in the experiment on M14, 17 µM (inactive); in the experiment on SNB-19, > 100 µM (inactive). The GI50 in the experiment on K562 is 20 µM (inactive).

Regarding `COC(=O)CCC(=O)N1CC1C` (configuration not stated), the GI50 in the experiment on SK-MEL-28, with A498, with HT-29, in the experiment with SNB-75, with SF-295 and in the experiment on U-251 was > 100 µM (inactive) each time. Also, the GI50 in the experiment on NCI-H522, in the experiment with HOP-62, in the experiment on SK-MEL-2, in the experiment with SW-620, with CAKI-1 and with SN12C was > 100 µM (inactive) throughout. For the same compound, the GI50 with M14, in the experiment on SNB-19 and in the experiment on K562 was > 100 µM (inactive) in each case.

For the compound `CC(=O)O[C@H]1C[C@@H](OC(C)=O)[C@@](C)(O)[C@@H]2[C@@H](OC(C)=O)[C@@]3(O)[C@H](/C=C(/CO)[C@H]4O[C@H]4[C@@H](OC(C)=O)[C@@]12C)OC(=O)[C@@H]3C`, the GI50 in the experiment on SK-MEL-28 was 22.3 µM (inactive); with A498, > 25 µM (inactive); in the experiment with MDA-N, 3.09 µM (inactive); in the experiment with HT-29 it was 11 µM (inactive); in the experiment with SNB-75 it was 5.53 µM (inactive); in the experiment on SF-295, 6.12 µM (inactive). The GI50 is 6.1 µM (inactive) in the experiment on U-251; 5.42 µM (inactive) with NCI-H522; 7.26 µM (inactive) in the experiment on HOP-62; 5.42 µM (inactive) with MDA-MB-435; 6.89 µM (inactive) in the experiment on SK-MEL-2; 11.5 µM (inactive) with SW-620. Further, the GI50 in the experiment with NCI/ADR-RES was > 25 µM (inactive); in the experiment with CAKI-1, 17.7 µM (inactive); with SN12C it was 12.2 µM (inactive); in the experiment with M14, 10.8 µM (inactive); in the experiment on SNB-19 it was > 25 µM (inactive); in the experiment on K562, 17.7 µM (inactive).

For the compound `[O-][n+]1cc(SCc2ccccc2)ncc1SCc1ccccc1`, the GI50 with SK-MEL-28, with A498, in the experiment with HT-29, in the experiment with SNB-75, in the experiment with SF-295 and with U-251 was > 10 µM (inactive) throughout. Besides, the GI50 in the experiment on NCI-H522, with HOP-62, in the experiment on MDA-MB-435, in the experiment with SK-MEL-2, in the experiment on NCI/ADR-RES and in the experiment on CAKI-1 was > 10 µM (inactive) each time. Moreover, the GI50 in the experiment on SN12C, in the experiment on M14, in the experiment on MCF7 and in the experiment with K562 was > 10 µM (inactive) in each case.

On to `CNC(=O)N1CN(c2ccccc2)C2(CCN(CCCC(=O)c3ccc(F)cc3)CC2)C1=O`, for which the GI50 in the experiment on SK-MEL-28 is 17.2 µM (inactive); in the experiment with HT-29, 5.19 µM (inactive); in the experiment on SNB-75 it was 29.3 µM (inactive); in the experiment on SF-295 it was 16.8 µM (inactive); in the experiment with U-251 it was 21.5 µM (inactive); with NCI-H522, 24.9 µM (inactive). Further, the GI50 with HOP-62 was 8.22 µM (inactive); with SW-620, 27.3 µM (inactive); with NCI/ADR-RES it was 17.6 µM (inactive); in the experiment on CAKI-1, 24.8 µM (inactive); in the experiment on SN12C it was 21.4 µM (inactive); with M14, 16.5 µM (inactive). In addition, the GI50 is 3.62 µM (inactive) in the experiment on MCF7, 17.3 µM (inactive) in the experiment with SNB-19 and 19.5 µM (inactive) with K562.

Take `O=C(CC(=O)Nc1ccccc1)N/N=C/c1cc(/N=N/c2ccc(Br)cc2)ccc1O`: the GI50 was 4.41 µM (inactive) with SK-MEL-28; 3.72 µM (inactive) in the experiment on MDA-N; > 10 µM (inactive) with SNB-75; 3.61 µM (inactive) with U-251; 5.3 µM (inactive) in the experiment with HOP-62; 4.84 µM (inactive) in the experiment with SW-620. Also, the GI50 is 2.88 µM (inactive) in the experiment on NCI/ADR-RES; 3.61 µM (inactive) in the experiment on CAKI-1; 8.22 µM (inactive) with SN12C; 6.37 µM (inactive) in the experiment on M14; 2.99 µM (inactive) in the experiment with MCF7; 2.96 µM (inactive) in the experiment with K562.

On to `COC(=O)C1OC(O[C@H]2CC[C@]3(C)[C@H]4CC=C5[C@@H]6CC(C)(C)CC[C@]6(C(=O)OC6OCC(O)C(O)C6OC6OC(C)C(OC7OCC(O)C(O)C7O)C(O)C6O)CC[C@@]5(C)[C@]4(C)CC[C@H]3C2(C)C)C(O)C(O)C1O` (some centres not stated), for which the GI50 with SK-MEL-28 was 14.4 µM (inactive) and 16.6 µM (inactive); in the experiment on MDA-N, 18.5 µM (inactive) and 15.9 µM (inactive); in the experiment on HT-29, 15.8 µM (inactive) and 16 µM (inactive); with SNB-75, 16.5 µM (inactive) and 16.1 µM (inactive); in the experiment on SF-295, 18.2 µM (inactive) and 17.4 µM (inactive); in the experiment with U-251, 18.4 µM (inactive) and 18.7 µM (inactive). Also, the GI50 in the experiment on NCI-H522 was 16.1 µM (inactive) and 16.4 µM (inactive); with HOP-62, 17.9 µM (inactive) and 18.4 µM (inactive); in the experiment with MDA-MB-435, 19.1 µM (inactive) and 17.9 µM (inactive); in the experiment on SK-MEL-2, 19.7 µM (inactive) and 17.6 µM (inactive); in the experiment on SW-620, 19.6 µM (inactive) and 21.9 µM (inactive); in the experiment with CAKI-1, 12.9 µM (inactive) and 15.5 µM (inactive). The GI50 in the experiment on SN12C was 13.4 µM (inactive) and 16.4 µM (inactive); with M14, 15.3 µM (inactive) and 18.2 µM (inactive); in the experiment on MCF7 it was 13.5 µM (inactive) and 13 µM (inactive); with SNB-19 it was 13.6 µM (inactive) and 17.2 µM (inactive); with K562 it was 25.8 µM (inactive) and 26 µM (inactive).

Turning to `CC(C)(C)OC(=O)N(CCCCNC(=O)C(F)(F)F)CCCNC(=O)C(F)(F)F`, the GI50 in the experiment on SK-MEL-28, with A498, with HT-29, with SNB-75, in the experiment on SF-295 and in the experiment on U-251 was > 100 µM (inactive) in each case. For the same compound, the GI50 with NCI-H522, in the experiment with HOP-62, with MDA-MB-435, with SK-MEL-2, with SW-620 and in the experiment on NCI/ADR-RES was > 100 µM (inactive) throughout. For the same compound, the GI50 in the experiment on CAKI-1, in the experiment with SN12C, in the experiment with M14, in the experiment with MCF7, in the experiment on SNB-19 and in the experiment on K562 was > 100 µM (inactive) each time.

As to `Cc1cc2c(cc1Cl)SC(NS(=O)(=O)c1ccc(Cl)cc1)=NS2(=O)=O`, the GI50 in the experiment on SK-MEL-28 is > 100 µM (inactive); in the experiment on A498, 30.4 µM (inactive); in the experiment with HT-29, 47.4 µM (inactive); in the experiment on SNB-75, 35.2 µM (inactive); in the experiment on SF-295, 23 µM (inactive); in the experiment on U-251, > 100 µM (inactive). In addition, the GI50 in the experiment with NCI-H522 is 21.7 µM (inactive); in the experiment on HOP-62, 98.6 µM (inactive); in the experiment with MDA-MB-435, 91.6 µM (inactive); in the experiment with SK-MEL-2, 54 µM (inactive); in the experiment on SW-620 it was 41.6 µM (inactive); in the experiment with NCI/ADR-RES, > 100 µM (inactive). In addition, the GI50 in the experiment on CAKI-1 is > 100 µM (inactive); in the experiment with SN12C, > 100 µM (inactive); in the experiment with M14, 82.2 µM (inactive); with MCF7 it was 56.8 µM (inactive); in the experiment with SNB-19 it was 65.6 µM (inactive); in the experiment on K562, 41.9 µM (inactive).

On to `COc1ccc2c(c1)CC[C@@H]1[C@@H]2CC[C@]2(C)C(=O)/C(=C/c3ccc(N(C)C)cc3)C[C@@H]12`, for which the GI50 was 30.3 µM (inactive) in the experiment on A498; 24.2 µM (inactive) in the experiment on SNB-75; 40.2 µM (inactive) with SF-295; 46.1 µM (inactive) in the experiment on U-251; 20.8 µM (inactive) in the experiment on HOP-62; > 100 µM (inactive) with MDA-MB-435. In addition, the GI50 with SK-MEL-2 is 24.9 µM (inactive); in the experiment with SW-620, > 100 µM (inactive); in the experiment with NCI/ADR-RES it was 33 µM (inactive); in the experiment on CAKI-1, 28.1 µM (inactive); in the experiment with M14, 61.2 µM (inactive); in the experiment with SNB-19, 35.6 µM (inactive).

(Values after ChEMBL document CHEMBL1201862, “PubChem BioAssay data set” (2004).)
